According to patent US4450269A, “Mono-5-substituted-3-chloro-4H-1,2,6-thiadiazin-4-one antifungal agents” (FMC Corporation, priority 1980, dated 1984):

Legend:
[1] = system: Fusarium solani; assay: Soil treatment, bean root rot; format: in vivo; settings: Fusarium solani, soil, 336 h; 150 ppm suspension, 3.8 mg active per pot; read-out: Percent Disease Control, seed/soil, bean root rot
How it was run: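 Soil around bean seedlings was drenched with a 150 ppm suspension, giving 3.8 mg active per pot. Twenty-four hours later the soil was inoculated with minced Fusarium solani mycelium. Plants were kept in a greenhouse, and percent control of root rot damage was scored after fourteen days.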

[2] = system: Pyricularia oryzae; assay: microbe, parasite or virus in culture; format: cell-based; settings: Pyricularia oryzae, 72 h; for inhibition at 5 ppm: read-out: Percent Fungus Growth Inhibition, PO, 5 ppm, 72 hours; for inhibition at 10 ppm: read-out: Percent Fungus Growth Inhibition, PO, 10 ppm, 72 hours; for inhibition at 20 ppm: read-out: Percent Fungus Growth Inhibition, PO, 20 ppm, 72 hours; for inhibition at 40 ppm: read-out: Percent Fungus Growth Inhibition, PO, 40 ppm, 72 hours
[3] = system: Cercospora beticola; assay: whole plant or invertebrate; settings: in Beta vulgaris, foliar, 24 h, read-out: Percent Disease Control, curative, sugar beet leaf spot
[4] = system: Cladosporium cucumerinum; assay: Spore germination test; format: cell-based; settings: CC, 48 hours
How it was run: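 Compound in acetone mixed into water agar at 40, 10, 2.5 and 1 ppm; plates seeded with spore suspension and incubated 48 hours at 24 °C. Percentage germinated spores counted and converted into a germination rating.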

Row | Compound | pest or weed control at 150 ppm, 3.8 mg/pot [1] [%] | inhibition at 5 ppm [2] [%] | inhibition at 10 ppm [2] [%] | inhibition at 20 ppm [2] [%] | inhibition at 40 ppm [2] [%] | pest or weed control at 150 ppm [3] [%] | Spore Germination Rating ([4]; 1.0 ppm) | Spore Germination Rating ([4]; 2.5 ppm) | Spore Germination Rating ([4]; 10 ppm) | Spore Germination Rating ([4]; 40 ppm)
1 | CCCCOc1ccc(Oc2nsnc(Cl)c2=O)cc1 [Compound 6, 3-chloro-5-(4-n-butoxyphenoxy)-4H--1,2,6-thiadiazin-4-one] | 0 | 15 | 0 | 19 | 19 | 0 | 0 (0-10) | 0 (0-10) | 0 (0-10) | 0 (0-10)
2 | CCOC(=O)c1ccc(Oc2nsnc(Cl)c2=O)cc1 [Compound 7, 3-chloro-5-(4-ethoxycarbonylphenoxy)-4H--1,2,6-thiadiazin-4-one] | 98 | 19 | 65 | 77 | 81 | 75 | 0 (0-10) | 0 (0-10) | 0 (0-10) | 1 (10-40)
3 | CC(=O)Nc1ccc(Oc2nsnc(Cl)c2=O)cc1 [Compound 8, 5-(4-acetylaminophenoxy)-3-chloro-4H--1,2,6-thiadiazin-4-one] | 0 | 23 | 0 | 48 | 74 | 0 | 4 (80-100) | 3 (60-80) | 0 (0-10) | 0 (0-10)
4 | O=c1c(Cl)nsnc1Oc1ccc([N+](=O)[O-])cc1 [Compound 9, 3-chloro-5-(4-nitrophenoxy)-4H--1,2,6-thiadiazin-4-one] | 0 | 22 | 48 | 70 | 93 | 75 | 0 (0-10) | 0 (0-10) | 0 (0-10) | 0 (0-10)
5 | N#Cc1ccc(Oc2nsnc(Cl)c2=O)cc1 [Compound 10, 3-chloro-5-(4-cyanophenoxy)-4H--1,2,6-thiadiazin-4-one] | 0 | 19 | 19 | 58 | 77 | 95 | 0 (0-10) | 0 (0-10) | 0 (0-10) | 0 (0-10)
6 | O=c1c(Cl)nsnc1Oc1ccc(F)cc1 [Compound 11, 3-chloro-5-(4-fluorophenoxy)-4H--1,2,6-thiadiazin-4-one] | 0 | 15 | 38 | 54 | 62 | 0 | 0 (0-10) | 0 (0-10) | 0 (0-10) | 0 (0-10)
7 | O=c1c(Cl)nsnc1Oc1ccc(Cl)cc1 [Compound 12, 3-chloro-5-(4-chlorophenoxy)-4H--1,2,6-thiadiazin-4-one] | 0 | 19 | 30 | 59 | 85 | 95 | 2 (40-60) | 0 (0-10) | 0 (0-10) | 0 (0-10)
8 | O=c1c(Cl)nsnc1Oc1cccc(Cl)c1 [Compound 13, 3-chloro-5-(3-chlorophenoxy)-4H--1,2,6-thiadiazin-4-one] | 75 | 44 | 42 | 74 | 100 | 98 | 2 (40-60) | 0 (0-10) | 0 (0-10) | 0 (0-10)
9 | O=c1c(Cl)nsnc1Oc1ccccc1Cl [Compound 14, 3-chloro-5-(2-chlorophenoxy)-4H--1,2,6-thiadiazin-4-one] | 90 | 23 | 26 | 55 | 100 | 0 | 4 (80-100) | 0 (0-10) | 0 (0-10) | 0 (0-10)
10 | O=c1c(Cl)nsnc1Oc1ccc(Br)cc1 [Compound 15, 3-chloro-5-(4-bromophenoxy)-4H--1,2,6-thiadiazin-4-one] | 0 | 12 | 19 | 50 | 58 | 0 | 0 (0-10) | 0 (0-10) | 0 (0-10) | 0 (0-10)
11 | O=c1c(Cl)nsnc1Oc1ccc(Cl)c(Cl)c1 [Compound 16, 3-chloro-5-(3,4-dichlorophenoxy)-4H--1,2,6-thiadiazin-4-one] | 0 | 41 | 48 | 48 | 41 | 95 | 0 (0-10) | 0 (0-10) | 0 (0-10) | 0 (0-10)
12 | O=c1c(Cl)nsnc1Oc1ccc(Cl)cc1Cl [Compound 17, 3-chloro-5-(2,4-dichlorophenoxy)-4H--1,2,6-thiadiazin-4-one] | 0 | 29 | 48 | 29 | 71 | 95 | 4 (80-100) | 0 (0-10) | 0 (0-10) | 0 (0-10)
13 | O=c1c(Cl)nsnc1Oc1cccc(Cl)c1Cl [Compound 19, 3-chloro-5-(2,3-dichlorophenoxy)-4H--1,2,6-thiadiazin-4-one] | 0 | 39 | 48 | 68 | 87 | 0 | 2 (40-60) | 0 (0-10) | 0 (0-10) | 0 (0-10)
14 | O=c1c(Cl)nsnc1Oc1cc(Cl)cc(Cl)c1 [Compound 20, 3-chloro-5-(3,5-dichlorophenoxy)-4H--1,2,6-thiadiazin-4-one] | 75 | 48 | 74 | 68 | 74 | 95 | 0 (0-10) | 0 (0-10) | 0 (0-10) | 0 (0-10)
15 | Cc1cccc(Oc2nsnc(Cl)c2=O)c1 [Compound 21, 3-chloro-5-(3-methylphenoxy)-4H--1,2,6-thiadiazin-4-one] | 0 | 33 | 33 | 50 | 58 | 100 | 1 (10-40) | 0 (0-10) | 0 (0-10) | 0 (0-10)
16 | Cc1ccccc1Oc1nsnc(Cl)c1=O [Compound 22, 3-chloro-5-(2-methylphenoxy)-4H--1,2,6-thiadiazin-4-one] | 0 | 21 | 33 | 54 | 63 | 0 | 0 (0-10) | 0 (0-10) | 0 (0-10) | 0 (0-10)
